Entries after “also recorded” stand apart in the source; their conditions may differ. Like-named read-outs stand apart in the source and are kept apart here.
What was measured:
hybridoma cell lines = conditions: cited from earlier work
[1] = test system: recombinant GS-NS0 mouse myeloma cell line (Cell line A); format: cell-based
[2] = test system: recombinant GS-NS0 mouse myeloma cell line (Cell line A); format: cell-based; remark: listed apart in the source
[3] = test system: recombinant NS0 mouse myeloma cell line selected using a G418 selection system; conditions: 1 mg/L FAC vs 1 mg/L transferrin and 0.1 mg/L FAC
Text: After 5 days, flasks were subcultured and then allowed to follow the full growth cycle.

[4] = test system: recombinant GS-NS0 cell line (Cell line B)
Protocol: Cells resuspended in this medium were then used to inoculate experimental flasks at an inoculation density of 2×10^5 cells/ml.
All flasks were also supplemented with 1 ml/L of a 1000× concentrated cholesterol and fatty acid supplement (CLOC).
Flasks were subcultured by dilution with fresh medium back to 2×10^5 cells/ml at 5 day intervals. On the second subculture flasks were allowed to overgrow to saturation. Cell counts were performed using the trypan blue exclusion method. Antibody titre analysis was performed using analytical protein A hplc against a homologous standard.

hybridoma cells = conditions: cited from earlier work
NSO myeloma cell lines = conditions: FAC alone, 0.2 mg/L; cited from earlier work
cell line A = conditions: 1 mg/L FAC, serum free and protein free GSF medium
Text: Innoculum for these fermentations was provided by subculture of the cells in media the same as that used in the fermentations.

[5] = test system: GS-NSO cell lines (Cell Lines C, D and E); conditions: protein free FAC medium, 4.5 L and 100 L
Protocol: Cell Line C was grown at both 4.5 and 100 L scale, Cell Line D at 4.5 L scale and Cell Line E at 100 L scale.

[6] = test system: mouse hybridoma cell line (9E10)
Protocol: A mouse hybridoma cell line (9E10), producing anti-Myc antibody, previously subcultured in modified CDSS supplemented with 1 mg/L human transferrin and 6 mM Glutamine was used to inoculate experimental flasks at an inoculation density of 1×10^5 cells/ml.
Flasks were subcultured by dilution with fresh medium back to 1×10^5 cells/ml at 3 day intervals. On the third subculture flasks were allowed to overgrow. Cell counts were performed using the trypan blue exclusion method.

O=C([O-])CC(O)(CC(=O)[O-])C(=O)[O-].[Fe+3] [FC, ferric citrate]
concentration required to support hybridoma cell growth with equivalence to transferrin (hybridoma cell lines): 500 µM | antibody titre compared to the transferrin containing control [1]: at least as much, and in the case of 10 mg/L FC significantly more antibody | concentration giving growth equivalent to transferrin containing control (maximum viable cell number and area underneath the growth curve) [2]: ≥ 10 mg/L | concentration of FC relative to FAC required for cell growth equivalent to transferrin [2]: 10 × | proliferation over subcultures [2]: unable to proliferate beyond the first subculture; also recorded: unable to proliferate beyond the second subculture

ferric ammonium citrate [FAC]
growth vs transferrin containing medium [3]: Equivalent growth | support of hybridoma growth (hybridoma cell lines; 10 mg/L, static culture, WO 94/02592): able to support hybridoma growth in static culture | more antibody produced at 0.4 mg/L than at 100 mg/L ([1]; culture with 0.4 mg/L vs culture with 100 mg/L): over 30% | antibody titre compared to the transferrin containing control ([1]; overgrow cultures, sandwich ELISA): at least as much, and in the majority of the cases significantly more antibody | concentration supporting growth equivalent to positive control culture ([4]; control 5 μM tropolone and 0.4 mg/L FAC, GSF medium): ≥ 0.8 mg/L | concentration supporting antibody production at least equivalent to control ([4]; overgrow cultures, protein A hplc): ≥ 0.8 mg/L | proliferation over subcultures ([2]; 0.2 mg/L): able to proliferate after the first division, but was then unable to grow further | concentration able to support continuous cell growth ([2]; duplicate of the experiment (FIG. 1c)): 0.2 mg/L | concentration able to support continuous cell growth over several subcultures and during the overgrow culture ([2]; modified CDSS, no transferrin, agitated suspension, three subcultures at 3 day intervals): ≥ 0.4 mg/L | concentration giving growth equivalent to transferrin containing control (maximum viable cell number and area underneath the growth curve) ([2]; overgrow cultures): ≥ 1 mg/L | support of hybridoma growth (hybridoma cells; 10 mg/L, agitated suspension culture, WO 94/02592): this was not the case in agitated suspension culture | support of hybridoma growth (hybridoma cells; FAC alone, between 0.1 and 10 mg/L, no transferrin or tropolone): incapable of supporting the growth of hybridoma cells | optimum concentration (hybridoma cells; FAC used with tropolone): 0.2 mg/L | support of NSO myeloma growth (NSO myeloma cell lines): could not support the growth of the NSO myeloma cell lines | growth and antibody production (cell line A): able to support good growth and antibody production in both media | growth and antibody productivity [5]: supports good growth of, and antibody productivity in, a wide range of cell lines | proliferation over subcultures ([6]; 0.2 mg/L): unable to proliferate beyond the first subculture | proliferation over subcultures ([6]; 0.4 mg/L): unable to proliferate beyond the first subculture | proliferation over subcultures ([6]; 1 mg/L): unable to proliferate beyond the second subculture | proliferation over subcultures ([6]; 2 mg/L): unable to proliferate beyond the second subculture | proliferation over subcultures ([6]; 10 mg/L): unable to proliferate beyond the second subculture | FAC concentration required by hybridoma cell lines relative to GS-NS0 cells for continuous cell growth ([6]; agitated suspension culture): > 100 × | concentration required to support growth ([6]; hybridoma 9E10, agitated suspension): ≥ 50 mg/L | concentration required for growth equivalent to transferrin containing control, maximum viable cell number ([6]; overgrow cultures): 100 mg/L | concentration giving growth equivalent to transferrin containing control, cumulative cell hours (CCH) ([6]; overgrow cultures, integral of area underneath growth curve): 50 mg/L

O=c1cccccc1O [tropolone, reference compound]
optimum concentration (hybridoma cells; tropolone used with FAC): 5 µM

Source: patent publication US8361797B2, “Myeloma cell culture in transferrin-free low iron medium” (Medimmune Limited, priority 2003, dated 2013)
